Assay results taken from patent US20100305098A1, “METHODS OF USE” (priority 2007, published 2010).

What was measured:
CYSLT2 = target: T1, CYSLT2 (Homo sapiens, UniProt Q9NS75); assay: FLIPR functional screen; type: cell-based; details: antagonist mode
T1 construct: Millipore

MC2 = target: T2, MC2 (Homo sapiens, UniProt Q01718); assay: FLIPR functional screen; type: cell-based; details: antagonist mode
T2 construct: Millipore

SST3 = target: T3, SST3 (Homo sapiens, UniProt P32745); assay: FLIPR functional screen; type: cell-based; details: antagonist mode
T3 construct: Millipore

Prostanoid EP4 = target: T4, Prostanoid EP4 (Homo sapiens, UniProt P35408); assay: Competitive radioligand binding (MDS Pharma)
T4 construct: host or cells: EP4-expressing membrane preparations
Procedure: Radioligand EP4 binding. The radioligand EP4 binding assay measures displacement of radiolabelled PGE2 from EP4-expressing membrane preparations. Radioligand EP4 binding assay kit was purchased from Millipore, and the assay was performed according to instructions of the manufacture.

EP2 = target: T5, EP2 (Homo sapiens, UniProt P43116); assay: FLIPR functional screen; type: cell-based; details: antagonist mode
T5 construct: Millipore

C3AR = target: T6, C3AR (Homo sapiens, UniProt Q16581); assay: FLIPR functional screen; type: cell-based; details: antagonist mode
T6 construct: Millipore

GPR54 = target: T7, GPR54 (Homo sapiens, UniProt Q969F8); assay: FLIPR functional screen; type: cell-based; details: antagonist mode
T7 construct: Millipore

GNRHR = target: T8, GNRHR (Homo sapiens, UniProt P30968); assay: FLIPR functional screen; type: cell-based; details: antagonist mode
T8 construct: Millipore

ADRB1 = target: T9, ADRB1 (Homo sapiens, UniProt P08588); assay: FLIPR functional screen; type: cell-based; details: antagonist mode
T9 construct: purchased Millipore (outsourced screen)

CXCR3 = target: T10, CXCR3 (Homo sapiens, UniProt P49682); assay: FLIPR functional screen; type: cell-based; details: antagonist mode
T10 construct: Millipore

ADRB2 = target: T11, ADRB2 (Homo sapiens, UniProt P07550); assay: FLIPR functional screen; type: cell-based; details: antagonist mode
T11 construct: purchased Millipore (outsourced screen)

CCK1 = target: T12, CCK1 (Homo sapiens, UniProt P32238); assay: FLIPR functional screen; type: cell-based; details: antagonist mode
T12 construct: Millipore

EP3 = target: T13, EP3 (Homo sapiens, UniProt P43115); assay: FLIPR functional screen; type: cell-based; details: antagonist mode
T13 construct: Millipore

PAR2 = target: T14, PAR2 (Homo sapiens, UniProt P55085); assay: FLIPR functional screen; type: cell-based; details: antagonist mode
T14 construct: Millipore

BB2 = target: T15, BB2 (Homo sapiens, UniProt P30550); assay: FLIPR functional screen; type: cell-based; details: antagonist mode
T15 construct: Millipore

ADRA2A = target: T16, ADRA2A (Homo sapiens, UniProt P08913); assay: FLIPR functional screen; type: cell-based; details: antagonist mode
T16 construct: purchased Millipore (outsourced screen)

V1B = target: T17, V1B (Homo sapiens, UniProt P47901); assay: FLIPR functional screen; type: cell-based; details: antagonist mode
T17 construct: Millipore

PTH2 = target: T18, PTH2 (Homo sapiens, UniProt P49190); assay: FLIPR functional screen; type: cell-based; details: antagonist mode
T18 construct: Millipore

Prostanoid EP2 = target: T19, Prostanoid EP2 (Homo sapiens, UniProt P43116); assay: Competitive radioligand binding (MDS Pharma)
T19 construct: purchased MDS Pharma (outsourced assay)

VPAC1 = target: T20, VPAC1 (Homo sapiens, UniProt P32241); assay: FLIPR functional screen; type: cell-based; details: antagonist mode
T20 construct: Millipore

M4 = target: T21, M4 (Homo sapiens, UniProt P08173); assay: FLIPR functional screen; type: cell-based; details: antagonist mode
T21 construct: Millipore

PTH1 = target: T22, PTH1 (Homo sapiens, UniProt Q03431); assay: FLIPR functional screen; type: cell-based; details: antagonist mode
T22 construct: Millipore

GPR103 = target: T23, GPR103 (Homo sapiens, UniProt Q96P65); assay: FLIPR functional screen; type: cell-based; details: antagonist mode
T23 construct: Millipore

CCR6 = target: T24, CCR6 (Homo sapiens, UniProt P51684); assay: FLIPR functional screen; type: cell-based; details: antagonist mode
T24 construct: Millipore

GLP1 = target: T25, GLP1 (Homo sapiens, UniProt P43220); assay: FLIPR functional screen; type: cell-based; details: antagonist mode
T25 construct: Millipore

D1 = target: T26, D1 (Homo sapiens, UniProt P21728); assay: FLIPR functional screen; type: cell-based; details: antagonist mode
T26 construct: Millipore

PAR4 = target: T27, PAR4 (Homo sapiens, UniProt Q96RI0); assay: FLIPR functional screen; type: cell-based; details: antagonist mode
T27 construct: Millipore

EP4 = target: T28, EP4 (Homo sapiens, UniProt P35408); assay: FLIPR functional screen; type: cell-based
T28 construct: SE302 cells that express endogenous EP4; endogenous in cells; host or cells: SE302 cells

PAC1 = target: T29, PAC1 (Homo sapiens, UniProt P41586); assay: FLIPR functional screen; type: cell-based; details: antagonist mode
T29 construct: Millipore

CCR4 = target: T30, CCR4 (Homo sapiens, UniProt P51679); assay: FLIPR functional screen; type: cell-based; details: antagonist mode
T30 construct: Millipore

OX1 = target: T31, OX1 (Homo sapiens, UniProt O43613); assay: FLIPR functional screen; type: cell-based; details: antagonist mode
T31 construct: Millipore

Leukotriene, BLT (LTB4) = target: T32, Leukotriene, BLT (LTB4) (Homo sapiens, UniProt Q15722); assay: Competitive radioligand binding (MDS Pharma)
T32 construct: purchased MDS Pharma (outsourced assay) 250510

Y2 = target: T33, Y2 (Homo sapiens, UniProt P49146); assay: FLIPR functional screen; type: cell-based; details: antagonist mode
T33 construct: Millipore

D2 = target: T34, D2 (Homo sapiens, UniProt P14416); assay: FLIPR functional screen; type: cell-based; details: antagonist mode
T34 construct: Millipore

A3 = target: T35, A3 (Homo sapiens, UniProt P0DMS8); assay: FLIPR functional screen; type: cell-based; details: antagonist mode
T35 construct: purchased Millipore (outsourced screen)

NOP = target: T36, NOP (Homo sapiens, UniProt P41146); assay: FLIPR functional screen; type: cell-based; details: antagonist mode
T36 construct: Millipore

NTR1 = target: T37, NTR1 (Homo sapiens, UniProt P30989); assay: FLIPR functional screen; type: cell-based; details: antagonist mode
T37 construct: Millipore

T4 sequence (P35408 whole entry): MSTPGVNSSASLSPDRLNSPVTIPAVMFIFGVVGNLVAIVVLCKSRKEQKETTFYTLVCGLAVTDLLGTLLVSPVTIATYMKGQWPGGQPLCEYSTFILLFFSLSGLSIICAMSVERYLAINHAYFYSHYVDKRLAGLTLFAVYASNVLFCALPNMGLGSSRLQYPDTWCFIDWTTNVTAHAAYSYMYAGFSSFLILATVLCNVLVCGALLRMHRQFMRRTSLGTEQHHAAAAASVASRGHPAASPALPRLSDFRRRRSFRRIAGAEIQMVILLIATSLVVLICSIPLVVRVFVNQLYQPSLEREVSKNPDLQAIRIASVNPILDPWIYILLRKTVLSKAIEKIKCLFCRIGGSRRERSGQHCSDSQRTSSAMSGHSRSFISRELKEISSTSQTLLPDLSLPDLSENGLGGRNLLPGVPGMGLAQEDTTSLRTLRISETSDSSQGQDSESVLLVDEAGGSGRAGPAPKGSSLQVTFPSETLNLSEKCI
T19 sequence (P43116 whole entry): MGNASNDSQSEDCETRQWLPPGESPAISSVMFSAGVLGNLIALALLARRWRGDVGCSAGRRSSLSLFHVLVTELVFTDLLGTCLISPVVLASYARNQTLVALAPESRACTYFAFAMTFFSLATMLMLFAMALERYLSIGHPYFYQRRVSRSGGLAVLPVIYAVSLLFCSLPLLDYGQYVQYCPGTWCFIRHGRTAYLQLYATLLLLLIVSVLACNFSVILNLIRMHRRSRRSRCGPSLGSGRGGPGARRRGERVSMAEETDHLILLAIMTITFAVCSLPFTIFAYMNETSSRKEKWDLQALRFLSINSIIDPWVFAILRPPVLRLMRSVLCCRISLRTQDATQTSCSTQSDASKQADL
T32 sequence (Q15722 whole entry): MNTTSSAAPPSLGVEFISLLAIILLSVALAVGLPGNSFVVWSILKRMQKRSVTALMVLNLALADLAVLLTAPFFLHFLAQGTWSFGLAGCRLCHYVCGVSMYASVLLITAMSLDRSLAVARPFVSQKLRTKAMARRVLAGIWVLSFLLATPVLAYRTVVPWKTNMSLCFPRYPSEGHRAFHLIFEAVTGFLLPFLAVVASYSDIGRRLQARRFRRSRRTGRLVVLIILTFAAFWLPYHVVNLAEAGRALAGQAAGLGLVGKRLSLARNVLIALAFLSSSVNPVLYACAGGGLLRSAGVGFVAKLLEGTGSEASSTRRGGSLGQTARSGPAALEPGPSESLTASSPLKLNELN
T28 sequence (P35408 whole entry): as the sequence (P35408 whole entry) above
T29 sequence (P41586 21-468): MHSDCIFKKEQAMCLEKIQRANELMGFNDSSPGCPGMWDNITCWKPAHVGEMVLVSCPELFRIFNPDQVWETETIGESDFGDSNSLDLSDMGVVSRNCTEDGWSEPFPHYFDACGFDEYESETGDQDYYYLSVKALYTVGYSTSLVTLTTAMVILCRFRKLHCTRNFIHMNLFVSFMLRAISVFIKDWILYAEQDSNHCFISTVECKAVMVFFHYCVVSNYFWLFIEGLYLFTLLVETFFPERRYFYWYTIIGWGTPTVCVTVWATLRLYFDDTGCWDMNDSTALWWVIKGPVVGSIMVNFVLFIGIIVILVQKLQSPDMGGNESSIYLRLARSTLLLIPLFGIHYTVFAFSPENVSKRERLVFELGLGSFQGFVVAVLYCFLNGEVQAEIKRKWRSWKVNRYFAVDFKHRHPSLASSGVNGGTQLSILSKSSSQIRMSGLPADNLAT
T31 sequence (O43613 whole entry): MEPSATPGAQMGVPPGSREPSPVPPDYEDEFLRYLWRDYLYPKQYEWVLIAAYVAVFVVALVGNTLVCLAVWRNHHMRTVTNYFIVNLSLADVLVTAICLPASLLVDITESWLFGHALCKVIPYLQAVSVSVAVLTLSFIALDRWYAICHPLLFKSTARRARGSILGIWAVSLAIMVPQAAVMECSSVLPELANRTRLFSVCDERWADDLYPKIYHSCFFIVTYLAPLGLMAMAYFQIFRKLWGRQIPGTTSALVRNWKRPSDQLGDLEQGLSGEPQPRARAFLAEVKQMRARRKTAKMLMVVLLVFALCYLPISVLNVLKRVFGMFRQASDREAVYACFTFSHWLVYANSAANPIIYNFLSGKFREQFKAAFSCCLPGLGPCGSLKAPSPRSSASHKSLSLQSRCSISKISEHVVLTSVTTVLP
T15 sequence (P30550 whole entry): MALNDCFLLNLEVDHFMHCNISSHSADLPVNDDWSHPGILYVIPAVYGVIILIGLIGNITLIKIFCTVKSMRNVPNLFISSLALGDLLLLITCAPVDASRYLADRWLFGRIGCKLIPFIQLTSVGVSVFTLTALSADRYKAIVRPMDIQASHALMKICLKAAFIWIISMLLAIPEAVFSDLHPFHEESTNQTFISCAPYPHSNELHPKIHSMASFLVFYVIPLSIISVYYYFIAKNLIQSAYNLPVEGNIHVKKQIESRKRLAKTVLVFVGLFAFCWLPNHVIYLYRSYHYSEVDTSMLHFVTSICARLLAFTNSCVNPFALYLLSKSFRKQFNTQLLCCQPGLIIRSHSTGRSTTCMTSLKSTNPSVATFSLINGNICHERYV
T24 sequence (P51684 whole entry): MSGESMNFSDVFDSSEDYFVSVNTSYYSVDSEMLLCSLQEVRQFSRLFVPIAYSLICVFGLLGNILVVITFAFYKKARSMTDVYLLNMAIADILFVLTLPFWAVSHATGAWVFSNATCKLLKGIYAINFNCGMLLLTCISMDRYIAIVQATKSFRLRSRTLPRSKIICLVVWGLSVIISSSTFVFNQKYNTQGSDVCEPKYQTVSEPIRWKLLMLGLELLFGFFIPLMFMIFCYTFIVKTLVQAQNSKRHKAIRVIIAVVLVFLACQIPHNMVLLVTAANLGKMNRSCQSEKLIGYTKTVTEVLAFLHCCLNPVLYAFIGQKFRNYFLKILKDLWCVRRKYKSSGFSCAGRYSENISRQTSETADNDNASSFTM
T23 sequence (Q96P65 whole entry, species assumed): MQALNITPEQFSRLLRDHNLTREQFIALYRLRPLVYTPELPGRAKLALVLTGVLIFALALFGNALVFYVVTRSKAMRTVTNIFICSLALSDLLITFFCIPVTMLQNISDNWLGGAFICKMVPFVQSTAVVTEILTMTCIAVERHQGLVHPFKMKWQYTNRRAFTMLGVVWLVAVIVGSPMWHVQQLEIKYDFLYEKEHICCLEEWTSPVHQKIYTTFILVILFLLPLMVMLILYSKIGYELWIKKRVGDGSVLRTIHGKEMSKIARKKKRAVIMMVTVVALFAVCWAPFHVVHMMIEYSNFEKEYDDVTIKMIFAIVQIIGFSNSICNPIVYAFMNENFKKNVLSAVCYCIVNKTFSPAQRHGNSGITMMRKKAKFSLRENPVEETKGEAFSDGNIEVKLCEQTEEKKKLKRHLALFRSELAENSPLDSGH
T21 sequence (P08173 whole entry): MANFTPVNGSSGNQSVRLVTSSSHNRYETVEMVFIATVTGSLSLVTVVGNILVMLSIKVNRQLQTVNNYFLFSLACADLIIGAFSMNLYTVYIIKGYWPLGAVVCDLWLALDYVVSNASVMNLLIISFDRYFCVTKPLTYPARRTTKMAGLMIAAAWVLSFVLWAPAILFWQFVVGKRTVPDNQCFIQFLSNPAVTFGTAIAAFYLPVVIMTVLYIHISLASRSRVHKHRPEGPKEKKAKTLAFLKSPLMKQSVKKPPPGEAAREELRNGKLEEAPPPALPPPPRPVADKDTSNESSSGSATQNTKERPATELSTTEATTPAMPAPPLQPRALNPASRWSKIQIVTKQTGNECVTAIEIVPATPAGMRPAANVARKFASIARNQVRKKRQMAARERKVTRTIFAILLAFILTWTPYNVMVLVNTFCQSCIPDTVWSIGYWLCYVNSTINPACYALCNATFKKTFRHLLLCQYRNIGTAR
T33 sequence (P49146 whole entry): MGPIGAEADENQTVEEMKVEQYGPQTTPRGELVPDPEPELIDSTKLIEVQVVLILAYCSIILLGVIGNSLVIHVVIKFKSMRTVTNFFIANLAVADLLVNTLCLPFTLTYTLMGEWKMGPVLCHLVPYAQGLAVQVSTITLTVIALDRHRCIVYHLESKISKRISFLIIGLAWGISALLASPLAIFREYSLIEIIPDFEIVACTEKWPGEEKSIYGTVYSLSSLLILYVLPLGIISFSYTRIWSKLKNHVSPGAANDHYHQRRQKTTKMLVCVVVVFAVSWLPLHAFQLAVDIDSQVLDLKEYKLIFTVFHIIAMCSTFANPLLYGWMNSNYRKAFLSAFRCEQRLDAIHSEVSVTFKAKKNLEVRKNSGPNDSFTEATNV
T27 sequence (Q96RI0 18-385): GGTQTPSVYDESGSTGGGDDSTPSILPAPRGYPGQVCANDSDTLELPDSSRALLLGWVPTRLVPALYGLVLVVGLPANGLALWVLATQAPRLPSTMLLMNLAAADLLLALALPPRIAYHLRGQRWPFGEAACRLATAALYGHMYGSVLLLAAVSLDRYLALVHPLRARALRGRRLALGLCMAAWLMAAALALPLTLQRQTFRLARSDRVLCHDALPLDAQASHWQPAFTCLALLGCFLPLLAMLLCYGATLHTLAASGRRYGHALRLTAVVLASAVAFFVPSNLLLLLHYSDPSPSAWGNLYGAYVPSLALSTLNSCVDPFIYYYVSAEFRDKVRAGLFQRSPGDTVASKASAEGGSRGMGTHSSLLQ
T5 sequence (P43116 whole entry): as the sequence (P43116 whole entry) above
T35 sequence (P0DMS8 whole entry): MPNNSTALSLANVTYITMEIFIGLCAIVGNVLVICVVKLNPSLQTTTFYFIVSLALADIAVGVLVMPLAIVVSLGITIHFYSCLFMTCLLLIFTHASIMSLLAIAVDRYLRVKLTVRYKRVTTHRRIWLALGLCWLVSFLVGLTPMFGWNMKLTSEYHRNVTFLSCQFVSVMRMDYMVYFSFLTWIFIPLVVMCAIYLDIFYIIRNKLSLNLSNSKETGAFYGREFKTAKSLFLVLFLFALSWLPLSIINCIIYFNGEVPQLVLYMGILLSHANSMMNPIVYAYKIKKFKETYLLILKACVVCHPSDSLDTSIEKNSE

Q: Which inhibition at 1 µM (CYSLT2) does the source give for `CCN1C(=O)N2Cc3cc(OC)cc(OC)c3[C@@H](C)C=C2C12CCN(Cc1cccn1C)CC2` [ER-819924-01] here?
A: 4.5%

Q: And the inhibition at 1 µM (MC2)?
A: -1%

Q: What about the inhibition at 1 µM (SST3) of the same molecule?
A: -19.7%

Q: And the “% INHIBITION” value (Prostanoid EP4; CONC. 0.1 μm)?
A: 21%

Q: What about the “% INHIBITION” value (Prostanoid EP4; CONC. 1 μm) of the same molecule?
A: 71%

Q: And the “binding selectivity for EP4 over other EP/prostanoid/leukotriene receptors” value (Prostanoid EP4; competitive radioligand binding assay)?
A: selectively bind to EP4

Q: What about the inhibition at 1 µM (EP2) of the same molecule?
A: 4.2%

Q: What about the inhibition at 1 µM (C3AR) of the same molecule?
A: -8.2%

Q: What about the inhibition at 1 µM (GPR54) of the same molecule?
A: -0.4%

Q: And the inhibition at 1 µM (GNRHR)?
A: 35.8%

Q: And the inhibition at 1 µM (ADRB1)?
A: -15.3%

Q: And the inhibition at 1 µM (CXCR3)?
A: 3.2%

Q: What about the inhibition at 1 µM (ADRB2) of the same molecule?
A: -2.3%

Q: What about the inhibition at 1 µM (CCK1) of the same molecule?
A: 13%

Q: And the inhibition at 1 µM (EP3)?
A: 7.8%

Q: And the inhibition at 1 µM (PAR2)?
A: -0.8%

Q: And the inhibition at 1 µM (BB2)?
A: 0.6%

Q: And the inhibition at 1 µM (ADRA2A)?
A: 3.3%

Q: And the inhibition at 1 µM (V1B)?
A: 4.7%

Q: And the inhibition at 1 µM (PTH2)?
A: -6.2%

Q: What about the “% INHIBITION” value (Prostanoid EP2; CONC. 0.1 μm) of the same molecule?
A: −3%

Q: And the “% INHIBITION” value (Prostanoid EP2; CONC. 1 μm)?
A: 1%

Q: What about the inhibition at 1 µM (VPAC1) of the same molecule?
A: 4.6%

Q: And the inhibition at 1 µM (M4)?
A: 10.5%

Q: What about the inhibition at 1 µM (PTH1) of the same molecule?
A: 3.9%

Q: What about the inhibition at 1 µM (GPR103) of the same molecule?
A: 0.4%

Q: What about the inhibition at 1 µM (CCR6) of the same molecule?
A: -4.9%

Q: And the inhibition at 1 µM (GLP1)?
A: 10.6%

Q: What about the inhibition at 1 µM (D1) of the same molecule?
A: 14%

Q: What about the inhibition at 1 µM (PAR4) of the same molecule?
A: -38.6%

Q: What about the “activity in FLIPR functional screen versus other GPCR's” value (EP4; 1 μM, Millipore outsourced data) of the same molecule?
A: showed activity only against the EP4 receptor

Q: And the inhibition at 1 µM (EP4; antagonist mode)?
A: 100%

Q: What about the inhibition at 1 µM (PAC1) of the same molecule?
A: 4.1%

Q: And the inhibition at 1 µM (CCR4)?
A: -13.4%

Q: And the inhibition at 1 µM (OX1)?
A: 0.7%

Q: And the “% INHIBITION” value (Leukotriene, BLT (LTB4); CONC. 0.1 μm)?
A: −12%

Q: And the “% INHIBITION” value (Leukotriene, BLT (LTB4); CONC. 1 μm)?
A: −11%

Q: What about the inhibition at 1 µM (Y2) of the same molecule?
A: -1%

Q: What about the inhibition at 1 µM (D2) of the same molecule?
A: -4.6%

Q: What about the inhibition at 1 µM (A3) of the same molecule?
A: 10.6%

Q: And the inhibition at 1 µM (NOP)?
A: 1%

Q: And the inhibition at 1 µM (NTR1)?
A: 0.5%
